Reference: patent publication US20200237705A1, “METHOD TO TREAT ANTIMICROBIAL RESISTANT CANDIDA” (Hennepin Life Sciences, LLC, priority 2017, published 2020)

How the values were obtained:
C. auris = assay: Killing of C. auris clinical isolates by GML alone in Todd Hewitt growth medium (plate counts); assay type: cell-based, Candida auris; details: two clinical isolates, 37° C., by 8 hours' incubation, limit of detection 10 CFUs/ml
From the text: In a first study performed was to test the ability of GML alone to kill two recent clinical isolates of C. auris (FIG. 1). […] The lower limit of detection of Candida is 10 CFUs/ml for these studies.

[1] = tested on: C. albicans, C. glabrata, C. krusei, C. parapsilosis, and C. pseudotropicalis; details: in vitro; Strandberg et al. 2010; cited from earlier work
Candida = details: women of menstrual age; Strandberg et al. 2010; cited from earlier work

Glycerol monolaurate [GML]
GML concentrations at which C. auris is killed (significant killing defined as ≥3 logs killing) (C. auris): ≥ 50 μg/ml | Ability to kill selected Candida species [1]: ability to kill selected Candida species | Numbers of Candida vaginally in women (Candida): can reduce the numbers of Candida vaginally
